Source: patent US10100010B1, “4-methoxy pyrrole derivatives or salts thereof and pharmaceutical composition comprising the same” (Daewoong Pharmaceutical Co., Ltd., priority 2015, dated 2018)
Where a name gives a salt, the structure may show the parent alone.

Assays:
Format in all cases: cell-based
[1] = target: 5-HT2A (Homo sapiens, UniProt P28223); experiment: GPCR Calcium Flux assay (FLIPR tetra, Eurofins), 5-HT2A; settings: for inhibition at 10 µM: single concentration of 10 uM, read-out: inhibition rate (%) 5-HT2A; for IC50: 8 concentrations 10 to 0.0006 uM, read-out: 50% inhibitory concentration (IC50) 5-HT2A
5-HT2A, sequence (P28223 whole entry): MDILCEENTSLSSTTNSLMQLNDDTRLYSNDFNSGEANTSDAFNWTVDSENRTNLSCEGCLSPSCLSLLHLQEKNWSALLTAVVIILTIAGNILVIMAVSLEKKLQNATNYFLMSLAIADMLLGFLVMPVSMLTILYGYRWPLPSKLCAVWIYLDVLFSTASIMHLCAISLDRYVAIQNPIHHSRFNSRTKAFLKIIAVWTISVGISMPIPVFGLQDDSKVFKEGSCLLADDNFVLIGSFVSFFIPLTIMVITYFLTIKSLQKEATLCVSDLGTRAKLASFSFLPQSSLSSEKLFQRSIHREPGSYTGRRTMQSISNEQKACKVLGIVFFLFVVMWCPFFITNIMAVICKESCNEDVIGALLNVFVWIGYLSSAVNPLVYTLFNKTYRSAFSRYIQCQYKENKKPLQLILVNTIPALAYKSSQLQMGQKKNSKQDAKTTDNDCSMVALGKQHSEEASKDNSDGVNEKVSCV
Experimental: (§1) In order to confirm whether the compounds prepared in the above Examples act as an agonist or antagonist against GPCR Target, Calcium Flux assay was performed in an assay plate in which the compounds prepared in the Examples, vehicle controls, and reference compounds were added, using a Fluorometric imaging plate reader (FLIPR tetra) equipment.
(§2) Calcium Flux assay was evaluated by entrusting the GPCR profiler assay in Safety panel assays with Eurofins. By using the Fluo-8AM calcium dye, excitation was measured at a wavelength in the range of 470 to 495 nm and Emission was measured at a wavelength in the range of 515-575 nm. GPCR Assay Buffer for Calcium Flux assay was prepared by adding 20 mM of HEPES and 2.5 mM of Probenecid to Hanks Balanced Salt Solution (HBSS) to have pH 7.4. The Compounds of Examples for evaluation of the GPCR were diluted with DMSO at a concentration of 10 mM to make a stock and then prepared by diluting in the GPCR Assay Buffer at the concentration equivalent to three times the final concentration. First, for the evaluation of GPCRs, the inhibitory activity of the compounds of the Examples was evaluated at a single concentration of 10 uM, and then the respective selected targets were four fold-diluted from 10 uM to the low side to calculate 50% inhibitory concentration (IC50), prepared at the total 8 concentrations of 10, 2.5, 0.62, 0.15, 0.04, 0.01, 0.0024, 0.0006 uM, and Calcium Flux assay for GPCR was conducted. In order to evaluate the agonist and antagonist, % inhibition rate against GPCR activity before and after treatment of the compounds and the inhibitory activity of the compounds of the Examples were determined.
(§3) As a result, when the efficacy of […] and acetylcholine of the compounds prepared in the Examples was 100%, the inhibition rate (%) at a single concentration of 10 uM was evaluated and shown in Table 8.

[2] = target: T1, M2 (Homo sapiens, UniProt P08172); experiment: GPCR Calcium Flux assay (FLIPR tetra, Eurofins), M2; settings: for inhibition at 10 µM: single concentration of 10 uM, read-out: inhibition rate (%) M2; for IC50: 8 concentrations 10 to 0.0006 uM, read-out: 50% inhibitory concentration (IC50) M2
T1 sequence (P08172 1-466): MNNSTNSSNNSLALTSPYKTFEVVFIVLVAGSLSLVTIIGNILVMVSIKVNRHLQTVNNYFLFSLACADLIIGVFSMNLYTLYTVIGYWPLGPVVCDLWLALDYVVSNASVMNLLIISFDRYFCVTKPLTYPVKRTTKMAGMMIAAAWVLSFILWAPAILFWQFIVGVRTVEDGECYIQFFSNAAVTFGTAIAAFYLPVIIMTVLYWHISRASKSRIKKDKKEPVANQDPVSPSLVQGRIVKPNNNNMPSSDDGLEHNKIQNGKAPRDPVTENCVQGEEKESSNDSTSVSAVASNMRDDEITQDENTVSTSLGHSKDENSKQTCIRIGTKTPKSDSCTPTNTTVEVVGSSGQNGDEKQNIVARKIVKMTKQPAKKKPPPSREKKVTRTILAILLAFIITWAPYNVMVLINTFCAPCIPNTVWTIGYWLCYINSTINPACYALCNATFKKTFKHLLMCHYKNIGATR
Experimental: as §1, §2, §3

[3] = target: T2, M1 (Homo sapiens, UniProt P11229); experiment: GPCR Calcium Flux assay (FLIPR tetra, Eurofins), M1; settings: for inhibition at 10 µM: single concentration of 10 uM, read-out: inhibition rate (%) M1; for IC50: 8 concentrations 10 to 0.0006 uM, read-out: 50% inhibitory concentration (IC50) M1
T2 sequence (P11229 1-460): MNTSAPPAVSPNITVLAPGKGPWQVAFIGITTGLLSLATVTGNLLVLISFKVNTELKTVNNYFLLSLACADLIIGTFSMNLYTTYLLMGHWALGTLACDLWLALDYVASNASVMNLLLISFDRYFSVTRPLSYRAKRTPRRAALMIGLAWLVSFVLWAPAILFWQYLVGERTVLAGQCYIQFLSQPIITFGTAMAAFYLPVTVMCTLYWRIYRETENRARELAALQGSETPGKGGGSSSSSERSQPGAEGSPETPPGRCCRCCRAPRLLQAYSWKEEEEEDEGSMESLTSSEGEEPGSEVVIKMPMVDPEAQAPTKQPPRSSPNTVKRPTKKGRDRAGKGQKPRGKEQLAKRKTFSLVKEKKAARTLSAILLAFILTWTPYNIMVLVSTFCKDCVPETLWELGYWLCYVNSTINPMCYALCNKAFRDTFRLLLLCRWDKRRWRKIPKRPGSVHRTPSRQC
Experimental: as §1, §2, §3

Work on `CNCc1cn(S(=O)(=O)c2cccc(C(F)(F)F)c2)c(-c2ccc(Cl)cc2F)c1OC` [Example 7, 1-(5-(2-fluoro-4-chlorophenyl)-4-methoxy-1-((3-(trifluoromethyl)phenyl)sulfonyl)-1H-pyrrol-3-yl)-N-methylmethanamine hydrochloride] yielded an inhibition at 10 µM [1] of 42.3%, an inhibition at 10 µM [2] of 0.8% and an inhibition at 10 µM [3] of 65.6%.
`CNCc1cn(S(=O)(=O)c2cccc(C(F)(F)F)c2)c(-c2c(F)ccc(F)c2F)c1OC` [Example 29, 1-(1-((3-trifluoromethylphenyl)sulfonyl)-4-methoxy-5-(2,3,6-trifluorophenyl)-1H-pyrrol-3-yl)-N-methylmethanamine hydrochloride] showed an inhibition at 10 µM [1] of 35.7%, an inhibition at 10 µM [2] of 19.4% and an inhibition at 10 µM [3] of 68.4%.
Compound `CNCc1cn(S(=O)(=O)c2cccc(C)c2)c(-c2ccc(F)cc2F)c1OC` [Example 10, 1-(5-(2,4-difluorophenyl)-1-((3-methylphenyl)sulfonyl)-4-methoxy-1H-pyrrol-3-yl)-N-methylmethanamine hydrochloride] has an IC50 [1] of 360 nM, an inhibition at 10 µM [1] of 101% and an inhibition at 10 µM [2] of 77.6%. It also gave an IC50 [3] of 1300 nM and an inhibition at 10 µM [3] of 96.2%.
`CNCc1cn(S(=O)(=O)c2cccc(F)c2)c(-c2c(F)cccc2F)c1OC` [Example 13, 1-(5-(2,6-difluorophenyl)-1-((3-fluorophenyl)sulfonyl)-4-methoxy-1H-pyrrol-3-yl)-N-methylmethanamine hydrochloride] showed an IC50 [1] of 76 nM, an inhibition at 10 µM [1] of 102% and an IC50 [2] of 510 nM. It also gave an inhibition at 10 µM [2] of 99.4%, an IC50 [3] of 110 nM and an inhibition at 10 µM [3] of 100%.
For `CNCc1cn(S(=O)(=O)c2cccc(Cl)c2)c(-c2c(F)ccc(F)c2F)c1OC` [Example 28, 1-(1-((3-chlorophenyl)sulfonyl)-4-methoxy-5-(2,3,6-trifluorophenyl)-1H-pyrrol-3-yl)-N-methylmethanamine hydrochloride], the IC50 [1] was 67 nM, the inhibition at 10 µM [1] was 97.6% and the inhibition at 10 µM [2] was 61.9%. The IC50 [3] was 550 nM and the inhibition at 10 µM [3] was 99.4%.
`CNCc1cn(S(=O)(=O)c2cccc(OC)c2)c(-c2ccccc2F)c1OC` [Example 3, 1-(5-(2-fluorophenyl)-4-methoxy-1-((3-methoxyphenyl)sulfonyl)-1H-pyrrol-3-yl)-N-methylmethanamine hydrochloride] showed an IC50 [1] of 180 nM, an inhibition at 10 µM [1] of 94% and an inhibition at 10 µM [2] of 76.9%. The inhibition at 10 µM [3] was 87%.
Compound `CNCc1cn(S(=O)(=O)c2cccc(Cl)c2)c(-c2c(F)cccc2F)c1OC` [Example 14, 1-(5-(2,6-difluorophenyl)-1-((3-chlorophenyl)sulfonyl)-4-methoxy-1H-pyrrol-3-yl)-N-methylmethanamine hydrochloride] has an IC50 [1] of 210 nM, an inhibition at 10 µM [1] of 99.9% and an inhibition at 10 µM [2] of 48.1%. It also gave an inhibition at 10 µM [3] of 94.9%.
With `CNCc1cn(S(=O)(=O)c2cccc(OC)c2)c(-c2c(F)cccc2F)c1OC` [Example 17, 1-(5-(2,6-difluorophenyl)-1-((3-methoxyphenyl)sulfonyl)-4-methoxy-1H-pyrrol-3-yl)-N-methylmethanamine hydrochloride] the IC50 [1] was 2200 nM, the inhibition at 10 µM [1] was 102% and the inhibition at 10 µM [2] was 60.1%. The inhibition at 10 µM [3] was 85.2%.
`CNCc1cn(S(=O)(=O)c2cccc(C(F)(F)F)c2)c(-c2ccc(F)cc2F)c1OC` [Example 9, 1-(5-(2,4-difluorophenyl)-1-((3-(trifluoromethyl)phenyl)sulfonyl)-4-methoxy-1H-pyrrol-3-yl)-N-methylmethanamine hydrochloride] showed an inhibition at 10 µM [1] of 61.1%, an inhibition at 10 µM [2] of 18.3% and an inhibition at 10 µM [3] of 74.7%.
With `CNCc1cn(S(=O)(=O)c2cccc(OC(F)F)c2)c(-c2ccc(F)cc2F)c1OC` [Example 12, 1-(5-(2,4-difluorophenyl)-1-((3-difluoromethoxyphenyl)sulfonyl)-4-methoxy-1H-pyrrol-3-yl)-N-methylmethanamine hydrochloride] the inhibition at 10 µM [1] was 101%, the inhibition at 10 µM [2] was 28.7% and the inhibition at 10 µM [3] was 93.1%.
`CNCc1cn(S(=O)(=O)c2cccc(OC)c2)c(-c2ccc(F)cc2F)c1OC` [Example 11, 1-(5-(2,4-difluorophenyl)-1-((3-methoxyphenyl)sulfonyl)-4-methoxy-1H-pyrrol-3-yl)-N-methylmethanamine hydrochloride] showed an IC50 [1] of 200 nM, an inhibition at 10 µM [1] of 102% and an inhibition at 10 µM [2] of 79.4%. For the same compound, the IC50 [3] was 1800 nM and the inhibition at 10 µM [3] was 97.2%.
In the case of `CNCc1cn(S(=O)(=O)c2cccc(OC(F)F)c2)c(-c2ccccc2F)c1OC` [Example 4, 1-(5-(2-fluorophenyl)-4-methoxy-1-((3-difluoromethoxyphenyl)sulfonyl)-1H-pyrrol-3-yl)-N-methylmethanamine hydrochloride], the IC50 [1] is reported as 850 nM, the inhibition at 10 µM [1] is reported as 96% and the inhibition at 10 µM [2] is reported as 22%. For the same compound, the inhibition at 10 µM [3] was 55.8%.
Compound `CNCc1cn(S(=O)(=O)c2cccc(C(F)(F)F)c2)c(-c2c(F)cccc2F)c1OC` [Example 15, 1-(5-(2,6-difluorophenyl)-1-((3-(trifluoromethyl)phenyl)sulfonyl)-4-methoxy-1H-pyrrol-3-yl)-N-methylmethanamine hydrochloride] has an inhibition at 10 µM [1] of 30.1%, an inhibition at 10 µM [2] of 62.1% and an inhibition at 10 µM [3] of 87.1%.
In the case of `CNCc1cn(S(=O)(=O)c2ccc(F)c(Cl)c2)c(-c2c(F)cccc2F)c1OC` [Example 18, 1-(5-(2,6-difluorophenyl)-1-((3-chloro-4-fluorophenyl)sulfonyl)-4-methoxy-1H-pyrrol-3-yl)-N-methylmethanamine hydrochloride], the IC50 [1] is reported as 210 nM, the inhibition at 10 µM [1] is reported as 98.1% and the inhibition at 10 µM [2] is reported as 42.1%. The IC50 [3] was ~2100 nM and the inhibition at 10 µM [3] was 91.2%.
`CNCc1cn(S(=O)(=O)c2ccc(F)c(F)c2)c(-c2c(F)cccc2F)c1OC` [Example 19, 1-(5-(2,6-difluorophenyl)-1-((3,4-difluorophenyl)sulfonyl)-4-methoxy-1H-pyrrol-3-yl)-N-methylmethanamine hydrochloride] gave an IC50 [1] of 120 nM, an inhibition at 10 µM [1] of 102% and an IC50 [2] of 820 nM. For the same compound, the inhibition at 10 µM [2] was 102%, the IC50 [3] was 430 nM and the inhibition at 10 µM [3] was 101%.
With `CNCc1cn(S(=O)(=O)c2ccc(F)c(F)c2)c(-c2c(F)cc(F)cc2F)c1OC` [Example 26, 1-(1-((3,4-difluorophenyl)sulfonyl)-4-methoxy-5-(2,4,6-trifluorophenyl)-1H-pyrrol-3-yl)-N-methylmethanamine hydrochloride] the inhibition at 10 µM [1] was 99%, the inhibition at 10 µM [2] was 89.2% and the inhibition at 10 µM [3] was 101%.
In the case of `CNCc1cn(S(=O)(=O)c2cccc(F)c2)c(-c2c(F)cccc2Cl)c1OC` [Example 20, 1-(5-(2-fluoro-6-chlorophenyl)-1-((3-fluorophenyl)sulfonyl)-4-methoxy-1H-pyrrol-3-yl)-N-methylmethanamine hydrochloride], the inhibition at 10 µM [1] is reported as 99.2%, the inhibition at 10 µM [2] is reported as 90.5% and the inhibition at 10 µM [3] is reported as 103%.
With `CNCc1cn(S(=O)(=O)c2cccc(OC)c2)c(-c2c(F)ccc(F)c2F)c1OC` [Example 30, 1-(1-((3-methoxyphenyl)sulfonyl)-4-methoxy-5-(2,3,6-trifluorophenyl)-1H-pyrrol-3-yl)-N-methylmethanamine hydrochloride] the inhibition at 10 µM [1] was 100%, the inhibition at 10 µM [2] was 43% and the IC50 [3] was 1400 nM. It also gave an inhibition at 10 µM [3] of 94.3%.
